Source: patent publication US20250171400A1, “AZA-HETEROCYCLYL CARBOXAMIDE AND RELATED COMPOUNDS AND THEIR USE IN TREATING MEDICAL CONDITIONS” (X-BIOTIX THERAPEUTICS, INC., priority 2021, published 2025)
Values after ≈ are worked out from the molar mass of the structure shown. Read-outs that look alike come from different tables or passages of the source.

Legend:
[1] = test system: wild-type P. aeruginosa PAO1; assay: broth microdilution minimum inhibition concentration assay; assay type: cell-based; conditions: Pseudomonas aeruginosa
Protocol: (§1) Exemplary compounds from the above Examples were tested to determine their minimum inhibitory concentration (MIC) for exemplary strains of Eschericia and Pseudomonas bacteria using broth microdilution methods. Assay procedures and results are described below.
(§2) Broth microdilution assays were conducted according to Clinical and Laboratory Standards Institute guidelines (CLSI, M07-A11: Clinical and Laboratory Standards Institute. Methods for Dilution Antimicrobial Susceptibility Tests for Bacteria that Grow Aerobically; Approved Standard—11th Edition. Wayne, PA: CLSI, 2018.). Briefly, a 0.5 McFarland standard suspension was made from bacterial isolates on non-selective, solid media. The inocula were adjusted to give a bacterial concentration of 1×10^6 CFU/mL. Serial doubling-dilutions of each compound were prepared in cation-adjusted Mueller-Hinton broth (Sigma-Aldrich) in 96-well microdilution plates. A 50 μL aliquot of the inoculum was added to each microdilution plate and, within 15 minutes, incubated at 37° C. in air for 16-20 h. […] The test was controlled by the determination of piperacillin MIC against both E. coli ATCC 25922 and P. aeruginosa ATCC 27853 and ensuring accordance with the ranges published in CLSI supplementary document M100 (CLSI, M100Ed29: Clinical and Laboratory Standards Institute. Performance Standards for Antimicrobial Susceptibility Testing, 29th Edition. Wayne, PA: CLSI, 2018.).
(§3) Multiple enterobacteriaceae strains were tested, including E. coli ATCC 25922 and K. pneumoniae ATCC 43816. WT E. coli BW25113 was tested with an isogenic mutant deficient in acrA mediated efflux by clean deletion. WT P. aeruginosa PAO1 was tested with an isogenic mutant deficient in MexA mediated efflux by clean deletion.
(§4) Experimental results are provided in Table 4, which provides MIC values for wild-type E. coli BW25113 (“E. coli WT MIC”), an isogenic mutant deficient in acrA mediated efflux by clean deletion (“E. coli KO MIC”), wild-type P. aeruginosa PAO1 (“P. aeruginosa WT MIC”), and an isogenic mutant deficient in MexA mediated efflux by clean deletion (“[…]”).

[2] = test system: wild-type E. coli BW25113; assay: as above; assay type: cell-based; conditions: Escherichia coli; wild-type E. coli BW25113, 37° C. 16-20 h; read-out: E. coli WT MIC
Protocol: as §1, §2, §3, §4

[3] = test system: P. aeruginosa PAO1 isogenic mutant deficient in MexA mediated efflux; assay: as above; assay type: cell-based; conditions: Pseudomonas aeruginosa, PAO1, read-out: P. aeruginosa KO MIC
Protocol: as §1, §2, §3, §4

[4] = test system: E. coli BW25113 isogenic mutant deficient in acrA mediated efflux; assay: as above; assay type: cell-based; conditions: Escherichia coli, BW25113, read-out: E. coli KO MIC
Protocol: as §1, §2, §3, §4

P. aeruginosa LpxC = P. aeruginosa LpxC (Pseudomonas aeruginosa (strain ATCC 15692 / DSM 22644 / CIP 104116 / JCM 14847 / LMG 12228 / 1C / PRS 101 / PAO1), UniProt P47205); assay: biochemical; assay type: biochemical; conditions: 5 nM P. aeruginosa LpxC, 2.5 μM substrate, 1 hour at room temperature
Protocol: (§5) Exemplary compounds from the above Examples were tested for ability to inhibit LpxC activity using an in vitro substrate deacetylation assay with ADDA™ analysis. Assay procedures and results are described below.
(§6) For ADDA™ analysis, an aliquot of assay sample was withdrawn from each well of the 384-well plate and applied to a Hypercarb cartridge (Optimize Technologies, USA) under conditions designed to retain analytes of interest. Analytes were eluted using 1:1:2 acetone:acetonitrile:water containing 5 mM ammonium acetate then analysed by triple-quadrupole mass spectrometry. Mass spectrometry was carried out using electrospray ionization in negative ion mode.
For IC50 determinations, peak areas of the substrate and product were compared to compute the proportion of substrate reacted by the LpxC enzyme at each compound concentration.

E. coli LpxC = E. coli LpxC (Escherichia coli (strain K12), UniProt P0A725); assay: in vitro substrate deacetylation assay for inhibition of LpxC (ADDA analysis); assay type: biochemical; conditions: 5 nM E. coli LpxC, 2.5 μM substrate, 1 hour at room temperature
Protocol: as §5
Dilutions of test compound were pre-incubated with 5 nM P. aeruginosa or E. coli LpxC for 10 minutes at room temperature in 50 mM NaH2PO4, 500 mM sucrose, 0.2 mg/mL BSA, pH 7.2 and <1% DMSO. Reactions were initiated by the addition of 2× substrate (UDP-3-O—(R-3-hydroxydecanoyl)-N-acetylglucosamine, Carbosynth Ltd, UK, for P. aeruginosa LpxC and UDP-3-O—(R-3-hydroxymyristoyl)-N-acetylglucosamine, BOC Sciences, USA, for E. coli LpxC), in 50 mM NaH2PO4, 0.5 mg/mL BSA, pH 7.2, to a final concentration of 2.5 μM. Reactions proceeded for 1 hour at room temperature prior to quenching with and equal volume of 2% acetic acid.
as §6, with “mode. Daughter ion peaks representing detected substrate (P. aeruginosa: parent Q1 mass=775.8 amu, daughter Q3 mass=384.7 amu E. coli: parent Q1 mass=833.0 amu, daughter Q3 mass=385.0 amu, collision energy=analyte specific, dwell time=50 ms) were identified using a multiple-reaction monitoring protocol.” for “mode.”
Total activity (0% inhibition) was obtained from reactions containing no compound, and 100% inhibition is defined as reactions in the presence of 1 μM CHIR-090 (N-[(1S,2R)-2-hydroxy-1-[(hydroxyamino)carbonyl]propyl]-4-[2-[4-(4-morpholinylmethyl)phenyl]ethynyl]-benzamide). For IC50 determinations, peak areas of the substrate and product were compared to compute the proportion of substrate reacted by the LpxC enzyme at each compound concentration. The fractional activity was converted to percentage inhibition and plotted against compound concentration in ActivityBase™ and fit using a four-parameter logistic using non-linear regression to yield the IC50 value.

[5] = wild-type P. aeruginosa PAO1, 37° C. 16-20 h, read-out: P. aeruginosa WT MIC
[6] = PAO1, read-out: P. aeruginosa WT MIC

Chain of E. coli LpxC (P0A725 whole entry): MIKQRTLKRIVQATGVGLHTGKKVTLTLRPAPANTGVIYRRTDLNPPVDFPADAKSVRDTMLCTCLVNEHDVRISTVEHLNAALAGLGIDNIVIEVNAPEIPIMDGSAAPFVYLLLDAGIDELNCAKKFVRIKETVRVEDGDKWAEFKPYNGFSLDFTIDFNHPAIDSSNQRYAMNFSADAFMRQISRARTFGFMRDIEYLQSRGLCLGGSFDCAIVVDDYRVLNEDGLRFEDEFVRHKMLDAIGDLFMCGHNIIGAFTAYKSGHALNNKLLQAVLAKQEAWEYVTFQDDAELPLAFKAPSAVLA

SMILES	MIC [1, 5]	MIC [2]	MIC [3]	MIC [4]	IC50 (P. aeruginosa LpxC)	IC50 (E. coli LpxC)	MIC [1, 6]
COC(=O)N1C[C@H](NC(=O)[C@@H]2C[C@H](F)CN2)C[C@@H]1C(=O)NCc1ccc(C#Cc2ccc(CN3CCOCC3)cc2)cc1 [Example 9AG]	> 100 µM	20 to 100 µM (≈ 11.8 to 59.2 µg/mL)	< 20 µM	< 20 µM	< 50 nM	< 500 nM	–
O=C(NC[C@H]1C[C@@H](NC(=O)[C@@H]2C[C@H](F)CN2)CN1C(=O)C1CC1)c1ccc(C#Cc2ccc(CN3CCOCC3)cc2)cc1Cl [Example 6, (2S,4S)—N-((3R,5R)-5-((2-Chloro-4-((4-(morpholinomethyl)phenyl)ethynyl)benzamido)methyl)-1-(cyclopropanecarbonyl)pyrrolidin-3-yl)-4-fluoropyrrolidine-2-carboxamide]	–	< 20 µM	< 20 µM	< 20 µM	50 to 100 nM	< 500 nM	> 100 µM
O=C(O)CCN1C[C@H](NC(=O)[C@@H]2C[C@H](F)CN2)C[C@@H]1C(=O)NCc1ccc(C#CC#CC2CC2)cc1 [Example 9AO]	–	> 100 µM	> 100 µM	> 100 µM	100 to 1000 nM	2500 to 10000 nM	> 100 µM
CC(C)C(=O)N1C[C@H](NC(=O)[C@@H]2C[C@H](C#N)CN2)C[C@@H]1C(=O)NCc1ccc(C#Cc2ccc(CN3CCOCC3)cc2)cc1 [Example 9AD, (2R,4R)-4-((2S,4S)-4-Cyanopyrrolidine-2-carboxamido)-1-isobutyryl-N-(4-((4-(morpholinomethyl)phenyl)ethynyl)benzyl)pyrrolidine-2-carboxamide]	> 100 µM	> 100 µM	< 20 µM	20 to 100 µM (≈ 12.2 to 61.1 µg/mL)	< 50 nM	< 500 nM	–
CC(C)C(=O)N1C[C@H](NC(=O)[C@@H]2C[C@H](F)CN2)C[C@@H]1CNC(=O)c1ccc(C#Cc2ccc(CN3CCOCC3)cc2)cc1 [Example 5, (2S,4S)-4-Fluoro-N-((3R,5R)-1-isobutyryl-5-((4-((4-(morpholinomethyl)phenyl)ethynyl)benzamido)methyl)pyrrolidin-3-yl)pyrrolidine-2-carboxamide]	> 100 µM	< 20 µM	< 20 µM	< 20 µM	< 50 nM	< 500 nM	–
CC(C)C(=O)N1C[C@H](NC(=O)[C@@H]2C[C@H](F)CN2)C[C@@H]1C(=O)NCc1ccc(C#Cc2ccc(CN3CCOCC3)cc2)cc1 [Example 9D]	–	20 to 100 µM (≈ 12.1 to 60.4 µg/mL)	< 20 µM	< 20 µM	< 50 nM	< 500 nM	> 100 µM
CC(C)C(=O)N1C[C@H](NC(=O)[C@@H]2C[C@H](C#N)CN2)C[C@@H]1C(=O)NCc1ccc(C#CC#CC2CC2)cc1 [Example 9AE]	> 100 µM	> 100 µM	20 to 100 µM (≈ 9.99 to 50 µg/mL)	> 100 µM	< 50 nM	500 to 2500 nM	–
O=C(N[C@@H]1C[C@H](C(=O)NCc2ccc(C#CC#CC3CC3)cc2)N(CCO)C1)[C@@H]1C[C@H](F)CN1 [Example 9AQ]	–	> 100 µM	> 100 µM	> 100 µM	100 to 1000 nM	2500 to 10000 nM	> 100 µM
NCCC(=O)N1C[C@H](NC(=O)[C@@H]2C[C@H](F)CN2)C[C@@H]1C(=O)NCc1ccc(C#CC#CC2CC2)cc1 [Example 9M]	–	> 100 µM	> 100 µM	> 100 µM	50 to 100 nM	2500 to 10000 nM	> 100 µM
